ChEMBL document CHEMBL5096183, “Contemporary advances of cyclic molecules proposed for inflammation” (Eur J Med Chem, 2021)
Converted amounts (≈) assume the structure as drawn. Values belong to the compound of their own block, whether it stands above or below them.

What was measured:
Rattus norvegicus [1] = assay: Antiulcer activity against ulceration induced albino Wistar rat assessed as ulcerogenic index pretreated daily at 25 mg/kg for 4 days followed by 24 hrs fasting prior to pylorus ligation measured after 4 hrs; type: functional; conditions: time 124 hrs
Rattus norvegicus [2] = assay: Anti-inflammatory activity against carrageenan-induced paw edema in Wistar rat at 20 mg/kg, po assessed as paw edema volume measured after 4 hrs by plethysmometric analysis relative to control; type: functional
Rattus norvegicus [3] = assay: Acute anti-inflammatory activity against carrageenan induced paw edema in Albino rat at 20 mg/kg, po pretreated for 30 mins followed by carrageenan addition measured every hour for 3 hrs by plethysmography method relative to control; type: functional; conditions: time 3.5 hrs
Rattus norvegicus [4] = assay: Anti-inflammatory activity against Cotton pellets induced granuloma in Albino rat at 20 mg/kg, po administered for 7 days measured on day 8 by measuring pellet weight relative to control; type: functional; conditions: time 8 day
[5] = Antioxidant activity assessed as DPPH radical scavenging activity incubated for 20 mins by UV spectrometric analysis; type: functional
[6] = molecular target: T1, Seed linoleate 13S-lipoxygenase-1 (Glycine max) (UniProt P08170); assay: Binding affinity to soybean LOX-1 assessed as quenching ability by fluorescence based assay relative to control
T1 sequence (whole entry): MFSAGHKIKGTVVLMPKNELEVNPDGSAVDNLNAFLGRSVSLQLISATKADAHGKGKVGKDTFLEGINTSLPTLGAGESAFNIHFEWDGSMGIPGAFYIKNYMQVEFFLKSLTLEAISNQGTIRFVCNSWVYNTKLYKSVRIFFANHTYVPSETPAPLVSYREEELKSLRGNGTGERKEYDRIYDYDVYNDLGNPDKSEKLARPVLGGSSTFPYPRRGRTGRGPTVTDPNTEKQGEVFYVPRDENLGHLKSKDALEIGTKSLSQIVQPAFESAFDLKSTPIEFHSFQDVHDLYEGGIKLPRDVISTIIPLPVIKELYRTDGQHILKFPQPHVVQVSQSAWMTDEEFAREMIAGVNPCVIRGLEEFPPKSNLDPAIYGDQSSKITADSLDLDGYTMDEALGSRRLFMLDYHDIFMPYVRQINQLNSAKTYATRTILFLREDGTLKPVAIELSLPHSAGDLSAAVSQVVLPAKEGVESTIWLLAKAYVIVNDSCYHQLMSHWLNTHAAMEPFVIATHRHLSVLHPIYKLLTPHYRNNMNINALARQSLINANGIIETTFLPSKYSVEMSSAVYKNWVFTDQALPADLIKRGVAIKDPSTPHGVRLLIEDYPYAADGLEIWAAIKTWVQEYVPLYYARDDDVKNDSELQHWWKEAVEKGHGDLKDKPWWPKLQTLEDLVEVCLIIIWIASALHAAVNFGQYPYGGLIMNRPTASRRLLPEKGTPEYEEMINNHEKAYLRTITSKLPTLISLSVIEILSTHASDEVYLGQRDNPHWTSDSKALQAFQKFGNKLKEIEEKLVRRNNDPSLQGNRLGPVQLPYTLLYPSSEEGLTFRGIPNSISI

[7] = molecular target: T2, Seed linoleate 13S-lipoxygenase-1 (Glycine max, UniProt P08170); assay: Inhibition of soybean LOX-1 using linoleic acid as substrate measured for 3 mins
T2 sequence (P08170 whole entry): T1 sequence (whole entry)

Rattus norvegicus [8] = assay: Anti-inflammatory activity against carrageenan-induced paw edema in Albino rat assessed as percentage of protection at 50 mg/kg,po pretreated for 1 hrs followed by carrageenan addition measured after 4 hrs by plethysmography method relative to control; type: functional; conditions: time 5 hrs
[9] = Inhibition of mouse full-length GST-tagged BRAF V600E mutant incubated for 1 hrs
[10] = molecular target: Epidermal growth factor receptor (Homo sapiens, UniProt P00533); assay: Inhibition of recombinant EGFR (unknown origin) expressed in baculovirus incubated for 10 mins by europium-labeled antiphosphotyrosine/enhancement solution based assay
Rattus norvegicus [11] = assay: Anti-inflammatory activity against carrageenan induced paw edema in rat assessed as inhibition of paw edema at 12.5 mg/kg,PO pretreated for 1 hrs followed by carrageenan addition for 4 hrs by plethysmographic analysis relative to control; type: functional; conditions: time 5 hrs
Rattus norvegicus [12] = assay: Anti-inflammatory activity against formalin-induced foot paw edema in Wistar rat assessed as oedema inhibition at 10 mg/kg,po measured after 3 hrs by plethysmometric analysis relative to control; type: functional
Rattus norvegicus [13] = assay: Anti-inflammatory activity against formalin-induced foot paw edema in Wistar rat assessed as oedema inhibition at 10 mg/kg,po measured after 1 hrs by plethysmometric analysis relative to control; type: functional
Rattus norvegicus [14] = assay: Anti-inflammatory activity against formalin-induced foot paw edema in Wistar rat assessed as oedema inhibition at 10 mg/kg,po measured after 6 hrs by plethysmometric analysis relative to control; type: functional
Rattus norvegicus [15] = assay: Anti-inflammatory activity against carrageenan-induced paw edema in rat relative to control; type: functional
Rattus norvegicus [16] = assay: Anti-inflammatory activity against carrageenan-induced paw edema in PO dosed Wistar albino rat assessed as edema inhibition percentage measured for 2 hrs relative to control; type: functional
Rattus norvegicus [17] = assay: Anti-inflammatory activity against carrageenan-induced paw edema in PO dosed Wistar albino rat measured after 2 hrs; type: functional
Rattus norvegicus [18] = assay: Anti-inflammatory activity against carrageenan-induced paw oedema in 12 hrs fasted Albino rat assessed as inhibition of oedema formation administered intraperitoneally measured after 3 hrs relative to control; type: functional; conditions: route ip
[19] = Ulcerogenic activity in 12 hrs fasted Albino rat assessed as ulcerogenic index at […] per day, po for 3 days; type: toxicity, organism-based; conditions: in vivo, 72 h, time 3 day
Rattus norvegicus [20] = assay: Anti-inflammatory activity against carrageenan-induced paw edema in Wistar albino rat at 10 mg/kg, po pretreated for 1 hr followed by carrageenan addition measured after 6 hrs by plethysmometer relative to control; type: functional; conditions: time 7 hrs
[21] = Inhibition of soy 15-LOX enzyme immunoassay; parameters: species or system Glycine max
Homo sapiens = organism: Homo sapiens; assay: Inhibition of proteinase (unknown origin) at 100 ug/ml using casein as substrate preincubated for 5 mins followed by addition of substrate for 20 mins relative to control; conditions: dose 100.0 µg/ml
Erythrocyte = assay: Anti-inflammatory against heat induced human red blood cells assessed as inhibition of heat induced hemolysis by measuring membrane stabilization for at 100 ug/ml incubated for 30 mins relative to control; type: functional; conditions: 0.5 h
Mus musculus = assay: Anti-inflammatory activity against Carrageenan-induced paw edema in Swiss albino mouse assessed as change in paw volume at 10 mg/kg, PO measured after 6 hrs by plethysmometric analysis relative to control; type: functional
RAW264.7 = assay: Anti-inflammatory activity against LPS induced mouse RAW264.7 cells assessed as suppression of TNFalpha cytokine level at 20 uM incubated for 24 hrs by ELISA assay relative to control; type: functional
Rattus norvegicus [22] = assay: Anti-inflammatory activity against carrageenan-induced hind paw edema in rat at 20 mg/kg, PO measured after 5 hrs relative to control; type: functional

Epidermal growth factor receptor, sequence (P00533 whole entry): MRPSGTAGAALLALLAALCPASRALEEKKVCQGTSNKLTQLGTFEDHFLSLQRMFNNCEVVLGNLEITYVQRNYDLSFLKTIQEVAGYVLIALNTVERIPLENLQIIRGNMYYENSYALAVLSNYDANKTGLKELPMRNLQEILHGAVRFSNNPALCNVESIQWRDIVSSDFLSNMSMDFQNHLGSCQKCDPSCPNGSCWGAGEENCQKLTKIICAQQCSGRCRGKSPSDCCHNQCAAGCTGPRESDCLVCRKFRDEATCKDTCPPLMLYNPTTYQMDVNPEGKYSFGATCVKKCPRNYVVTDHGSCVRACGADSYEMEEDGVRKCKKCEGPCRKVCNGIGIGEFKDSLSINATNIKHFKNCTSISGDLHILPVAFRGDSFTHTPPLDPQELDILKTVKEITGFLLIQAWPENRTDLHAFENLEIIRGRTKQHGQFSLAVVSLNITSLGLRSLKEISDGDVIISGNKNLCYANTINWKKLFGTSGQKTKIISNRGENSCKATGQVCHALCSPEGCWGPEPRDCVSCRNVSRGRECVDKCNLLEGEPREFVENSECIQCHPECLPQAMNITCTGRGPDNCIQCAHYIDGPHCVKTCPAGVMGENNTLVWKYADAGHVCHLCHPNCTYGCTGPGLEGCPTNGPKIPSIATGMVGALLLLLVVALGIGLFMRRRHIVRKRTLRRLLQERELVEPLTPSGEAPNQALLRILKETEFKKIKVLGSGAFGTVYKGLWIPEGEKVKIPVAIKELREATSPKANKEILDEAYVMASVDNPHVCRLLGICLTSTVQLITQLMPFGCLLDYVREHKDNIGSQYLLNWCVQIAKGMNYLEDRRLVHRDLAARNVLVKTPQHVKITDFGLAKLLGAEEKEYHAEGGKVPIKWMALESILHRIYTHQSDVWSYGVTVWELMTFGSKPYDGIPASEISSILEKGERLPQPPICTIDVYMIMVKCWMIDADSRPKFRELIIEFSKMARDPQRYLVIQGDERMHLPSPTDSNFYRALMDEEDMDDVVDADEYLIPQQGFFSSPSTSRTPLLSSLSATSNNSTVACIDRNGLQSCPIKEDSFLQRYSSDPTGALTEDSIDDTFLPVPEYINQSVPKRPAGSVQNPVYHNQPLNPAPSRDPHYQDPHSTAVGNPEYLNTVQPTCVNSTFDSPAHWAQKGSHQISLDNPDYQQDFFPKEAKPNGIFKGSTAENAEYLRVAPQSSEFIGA

SMILES: CCOC(=O)c1cc(N)n(C(=O)c2csc(-c3ccccc3)n2)n1
Activity (Rattus norvegicus [1]): 0.44

SMILES: COc1ccccc1OC(=O)c1cc(OC)c(OC)c(OC)c1
inhibition in vivo at 20 mg/kg (Rattus norvegicus [2]): 77.1%

SMILES: O=C(CCN1CCN(c2ccc([N+](=O)[O-])cc2)CC1)Nc1ccc2oc(Cc3ccc(Cl)cc3)nc2c1
Activity (Rattus norvegicus [3]): 81.7% | Activity (Rattus norvegicus [4]): 44%

IC50 [5]: 360 µg/mL (≈ 1770 µM) | Qmax [6]: 76.3% | IC50 [7]: 65.4 µM
SMILES: COCc1nc2ccc3occc3c2o1

SMILES: CCc1nnc(-c2cc3cc([N+](=O)[O-])ccc3o2)o1
Activity (Rattus norvegicus [8]): 72%

IC50 [9]: 1.7 µM | IC50 [10]: 0.2 µM
SMILES: Cc1ccc(/C=N/NC(=O)CNc2nc(-c3ccccc3)c(-c3ccccc3)s2)cc1

SMILES: Cc1ccc(N(O)/N=N/c2ccc(S(=O)(=O)Nc3nc(C)cc(C)n3)cc2)cc1
inhibition in vivo at 12.5 mg/kg (Rattus norvegicus [11]): 97.1%

SMILES: O=C(O)Cc1ccccc1Nc1c(Cl)cccc1Cl [DICLOFENAC]
inhibition in vivo at 10 mg/kg (Rattus norvegicus [12]): 40.7% | inhibition in vivo at 12.5 mg/kg (Rattus norvegicus [11]): 94% | inhibition in vivo at 10 mg/kg (Rattus norvegicus [13]): 41.7% | inhibition in vivo at 10 mg/kg (Rattus norvegicus [14]): 41.7% | Activity (Rattus norvegicus [15]): 85.6%

SMILES: CC1=NN(c2ccccc2C(=O)O)C(=O)/C1=N/Nc1ccc(S(N)(=O)=O)cc1
inhibition (INH) (Rattus norvegicus [16]): 54.54% | ED50 (Rattus norvegicus [17]): 44 µmol/kg

SMILES: Cc1ccc(S(=O)(=O)N2CC(O)CC2C(=O)Nc2nc3ccccc3s2)cc1 (centres undefined)
inhibition (INH) (Rattus norvegicus [18]): 78% | Activity_index [19]: 0.89

SMILES: S=c1oc(-c2csc(-c3ccccc3)n2)nn1CN1CCCCC1
Activity (Rattus norvegicus [1]): 0.44

SMILES: CC(C)Cc1ccc(C(C)C(=O)c2ccc(OCc3cn(Cc4ccc([N+](=O)[O-])cc4)nn3)cc2O)cc1 (centres undefined)
inhibition in vivo at 10 mg/kg (Rattus norvegicus [20]): 94.2%

SMILES: CN(C)CCC(=O)Nc1ccc2oc(Cc3ccc(Cl)cc3)nc2c1
Activity (Rattus norvegicus [3]): 72% | Activity (Rattus norvegicus [4]): 48.4%

SMILES: O=C(Nc1nc2ccccc2s1)C(Cc1cc2ccccc2[nH]1)N(C(=O)c1ccccc1)S(=O)(=O)c1ccc([N+](=O)[O-])cc1 (centres undefined)
inhibition (INH) (Rattus norvegicus [18]): 80% | Activity_index [19]: 0.82

IC50 [21]: 5.64 µM
SMILES: Cc1ccc(Cl)c(Nc2ccccc2C(=O)O)c1Cl [MECLOFENAMATE SODIUM]

inhibition (Homo sapiens): 75.2%
SMILES: C(=N\c1ccccc1-c1nc2ccccc2o1)/c1cccs1
inhibition at 100 µg/mL (Erythrocyte): 70.2%

inhibition (Homo sapiens): 85.3%
SMILES: Clc1cc(Cl)c2cccc(-c3nc4ccccc4o3)c2n1
inhibition at 100 µg/mL (Erythrocyte): 80.2%

SMILES: COc1ccc(C2CC(c3ccc(F)cc3O)=NN2)cc1 (centres undefined)
Activity (Mus musculus): 54%

SMILES: O=C1/C(=C\c2ccc(F)cc2)C=C(c2ccc(F)cc2)N1Cc1ccccc1Cl
Activity (RAW264.7): 60.9% | inhibition in vivo at 20 mg/kg (Rattus norvegicus [22]): 71.5%
